Data on two molecules can be found in patent US11261498B2, “Methods for diagnosing and treating cancer” (priority 2011, dated 2022).

In one assay the test system is NSCLC cell lines. The assay is described as follows: Erlotinib sensitivity (IC50, Celltiter-Glo cell viability) of NSCLC cell lines versus ERBB2 methylation. The format is cell-based. Particulars: in vitro, 72 hrs, 3 nM TGFα, IC50 values only in FIG. 5. How it is done:
After 72 hrs, cell viability was measured using the Celltiter-Glo Luminescent Cell Viability Assay (Promega).
For orientation: ATP-based viability assays read luminescence as a measure of living cells.

Assay [1] concerns advanced, treatment-refractory NSCLC. The settings on record: phase III, monotherapy, patients with advanced; cited from earlier work.
The subject of another assay is NSCLC. Particulars: phase III, first-line, in combination with standard chemotherapy; cited from earlier work.
Another assay relates to pancreatic cancer. Particulars: phase III, first-line, in combination with gemcitabine; cited from earlier work.

Turning to `C#Cc1cccc(Nc2ncnc3cc(OCCOC)c(OCCOC)cc23)c1` [erlotinib, [6,7-bis(2-methoxyethoxy)-4-quinazolin-4-yl]-(3-ethynylphenyl) amine], in the assay with NSCLC cell lines, the “correlation of ERBB2 hypomethylation with erlotinib sensitivity” value is “strongly correlated”. For the same molecule, in assay [1], the disease progression entry is recorded as “delayed disease progression”, the survival result is listed as “significantly prolonged survival” and the “worsening of lung cancer-related symptoms” value is listed as “delayed worsening of lung cancer-related symptoms”. Besides, the survival entry in the assay with NSCLC is listed as “did not improve survival”. Besides, the survival result in the assay on pancreatic cancer is recorded as “did improve survival”.
Take `COc1cc2ncnc(Nc3ccc(F)c(Cl)c3)c2cc1OCCCN1CCOCC1` [gefitinib]: the survival entry with NSCLC was “did not improve survival”.
